Source: US20070112013A1, “Method of modulating ion channel functional activity” (Australian National University, priority 1998, published 2007)

Assays:
HIV-1 [1] = assay: PCR based assay of newly synthesised HIV DNA in human monocytes and macrophages; assay type: cell-based; details: 50 μM
Experimental: Human monocytes were isolated from peripheral blood and cultured either for 24 hr (one day old monocytes) or for 7 days to allow differentiation into monocyte derived macrophages (MDM). These cells were then exposed to cell-free preparations of HIV isolates and allowed to absorb for 2 hr before complete aspiration of the medium, washing once with virus-free medium and resuspension in fresh medium. The cells were exposed to 50-10 μM HMA or DMA either 24 hr prior to infection or after infection. Subsequent HIV replication, at various times after infection, was compared in cells exposed to drugs and in cells not exposed to drugs (controls). The progression and extent of viral replication was assayed using either an HIV DNA PCR method (Fear et al, 1998) or an ELISA method to quantitate p24 in culture supernatants (Kelly et al, 1998).
(§1) Subsequent tests were carried out to establish whether there was any anti-viral activity of HMA and DMA. Two tests were performed to characterise the effects of the drugs on HIV replication in human monocytes and macrophages: a) A PCR based assay was used to detect newly synthesised DNA arising from reverse transcription of the HIV genome, an early stage in virus replication; b) An ELISA method was used to quantitate production of the viral protein p24, reflecting a later stage in the replication process.

HIV-1 [2] = assay: p24 ELISA of HIV virion production in human monocytes and macrophages; assay type: cell-based
Experimental: FIG. 7 is a graphical representation of the effect of HMA on HIV virion production in monocytes and monocyte-derived macrophages. HIV in culture supernatants was assayed at various days post-infection by detection of p24 antigen using a quantitative ELISA method. Solid black bars represent HIV-infected cells exposed to 10 μM HMA. Hatched bars are control cells not exposed to drug.
Human monocytes were isolated from peripheral blood and cultured either for 24 hr (one day old monocytes) or for 7 days to allow differentiation into monocyte derived macrophages (MDM). […] The progression and extent of viral replication was assayed using either an HIV DNA PCR method (Fear et al, 1998) or an ELISA method to quantitate p24 in culture supernatants (Kelly et al, 1998).
as §1

Vpu ion channel [3] = target: T1, Vpu ion channel (Human immunodeficiency virus type 1 group M subtype B, UniProt P05919); assay: Vpu ion channel activity in planar lipid bilayers; assay type: biochemical, HIV-1; details: concentrations of 50-250μM
T1 construct: The vpu ORF was cloned in-frame at the 3′ end of the GST gene in p2GEX to generate p2GEXVpu; GST (N, cleaved yes); made in house; host or cells: E. coli XL1-blue containing p2GEXVpu
Source text: FIG. 6 is a graphical representation of the inhibition of Vpu ion channel activity by 5-(N,N-hexamethylene)-arniloride (HMA) in planar lipid bilayers. The three traces represent typical Vpu channel activity observed in the presence of the indicated concentrations of HMA. The solid line indicates the zero current level. Mean currents (±variance), calculated for continuous channel recordings of at least 30 seconds duration, are plotted in the graph for each of the three drug concentrations.
Purified Vpu was tested for its ability to induce channel activity in planar lipid bilayers using standard techniques as described elsewhere (Miller, 1986; and Piller et al, 1996). The solutions in the CIS and TRANS chambers were separated by a Delrin™ plastic wall containing a small circular hole of approximately 100 μm diameter across which a lipid bilayer was painted so as to form a high resistance electrical seal. Bilayers were painted from a mixture (8:2) of palrnitoyl-oleoly-phosphatidyl-ethanolamine and palmitoyl-oleoly-phosphatidyl-choline (Avanti Polar Lipids, Alabaster, Alabama) in n-decane. The solutions in the two chambers contained MES buffer (10 mM, pH 6.0) to which various NaCl or KCl concentrations were added. Currents were recorded with an Axopatch™ 200 amplifier. The electrical potential between the two chambers could be manipulated between ±200 mV (TRANS relative to grounded CIS). Aliquots containing Vpu were added to the CIS chamber either as a detergent solution or after incorporation of the protein into phospholipid vesicles. The chamber was stirred until currents were observed.

Vpu ion channel [4] = target: T1, Vpu ion channel; assay: Bio-assay for Vpu channel blockers: growth of E. coli XL1-blue expressing Vpu on plates lacking adenine; assay type: cell-based, HIV-1; details: XL1-blue E. coli containing pPL-Vpu, medium lacking adenine, 37° C.
Experimental: FIG. 5 is a graphical representation of the screening of drugs for potential Vpu channel blockers. […] Numbers 6-11 are located at the sites of application of various drugs being tested, which were applied in 3μl drops and allowed to soak into the agarose. The plate was then incubated at 37° C. for 48hr prior to being photographed. The background grey shade corresponds to areas of no bacterial growth. The bright circular area around “10” represents bacterial cell growth as a result of application of adenine at that location (positive control).
As part of a search for drugs that block the Vpu ion channel, a novel bio-assay was developed to facilitate the screening process which would be prohibitively slow if performed in the bilayer assay (Ewart et al, 1996). This bio-assay is based on the observation that expression of Vpu in E.coli results in an active Vpu channel located in the plasmalemma that dissipates the transmembrane sodium gradient. As a consequence of this Vpu channel activity, metabolites whose accumulation within the cells is mediated by a sodium dependent co-transporter (for example proline or adenine) leak out of the cell faster than they can be synthesised so that the metabolites' intracellular levels become limiting for growth of the cell. Thereby, an E. coli cell expressing Vpu is unable to grow in minimal drop-out media lacking adenine or proline. However, in the presence of a drug that blocks the Vpu channel, the cell is once again able to re-establish its transmembrane sodium gradient—due to the action of other ion pumps in the membrane—and the leakage of metabolites is prevented enabling growth.
It was observed that, due to an uncharacterised mutation in the adenine synthesis pathway, growth of E. coli cells of the XL1-blue strain expressing Vpu at 37° C. was dependant on the presence of adenine in the medium. […]

HIV = assay: Effect on HIV replication (test not specified); assay type: cell-based

T1 sequence (P05919 whole entry): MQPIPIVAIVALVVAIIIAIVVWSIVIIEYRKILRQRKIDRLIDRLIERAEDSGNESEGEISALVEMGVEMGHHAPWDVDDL

SMILES	synthesis of HIV DNA in the cells (HIV-1 [1])	HIV virion synthesis (p24 ELISA) (HIV-1 [2]; 50 μM, data not shown)	inhibition of Vpu ion-channel activity (Vpu ion channel [3])	halo of bacterial growth around the site of application (inhibition of Vpu channel) (Vpu ion channel [4])	effect on HIV replication (HIV)	halo of bacterial growth around the site of application (inhibition of Vpu channel) (Vpu ion channel [4]; listed as 5-(N,N-hexamethylene)-anmiloride)	HIV virion synthesis (p24 ELISA) (HIV-1 [2]; 10 μM, monocytes (FIG. 7A) and macrophages (FIG. 7B))
CN(C)c1nc(N)c(C(=O)N=C(N)N)nc1Cl [DMA, 5-(N,N-Dimethyl)-Amiloride]	inhibited synthesis of HIV DNA	clear inhibition of HIV virion synthesis	inhibit channel activity, though not as potently as HMA				
N=C(N)NC(=O)c1nc(Cl)c(N)nc1N [amiloride, reference compound]			not active as a channel blocker	did not produce a halo of bacterial growth	no effect on HIV replication		
NC(N)=NC(=O)c1nc(Cl)c(N2CCCCCC2)nc1N [HMA, 5-(N,N-Hexamethylene)-Amiloride]			block ion flow through the channel	a halo of growth		smaller halo of bacterial growth	clear inhibition of HIV virion synthesis
